From patent US20220087970A1, “PREVENTION OF ANESTHETIC-INDUCED NEUROCOGNITIVE DYSFUNCTION” (The Johns Hopkins University, priority 2019, published 2022)

Legend:
SAP102 = assay: Western blot of hippocampal synaptic fractions: SAP102; format: in vivo; settings: one day after PND7 mice exposed to isoflurane (1.5% ISO in O2, 4 h)
Experimental: (§1) One day after PND7 mice were exposed to isoflurane (1.5% ISO in O2, 4 h), we harvested hippocampal tissues for Western blotting to assess the expression of receptors and MAGUKs. […] (N=9). A *p<0.05 was considered significant. […] Data shown as % actin;

NR1 = assay: Western blot of hippocampal synaptic fractions: NR1; format: in vivo; settings: one day after PND7 mice exposed to isoflurane (1.5% ISO in O2, 4 h)
Experimental: as §1

[1] = design: species or system mice; settings: mouse, in vivo
Experimental: PND7 control and experimental mice were placed in a clear plastic cone and body temperature maintained by a heating blanket set to 35° C. Heart rate (HR) and oxyhemoglobin saturation (SpO2) were continuously monitored using pulse-oximetry (PhysioSuite, Kent Scientific). Arterial blood was collected by terminal cardiac puncture of the left ventricle from sentinels and pH (pHa) determined using a blood gas machine (ABL800 FLEX Series Radiometer). […] Naïve control animals were left with the dams. Control ‘CON’ animals were exposed to oxygen only. Anesthesia was initiated with 2.4% isoflurane in oxygen for 2 min and tapered down to 1.5% within 15 min. Exposure to 1.5% isoflurane was continued for 3 hours and 45 min (total 4 hours ISO). At the end of the exposure animals were maintained in oxygen on the heating blanket for 10 min then returned to dams. […] Tao and Johns, 2008. Purification of fusion peptides was performed by Creative BioMart (Shirley, N.Y.) and verified by Coomassie blue staining and Western blot analysis and then stored in 10% glycerol/phosphate-buffered saline at −80° C. until use. The Tat-PSD-95 PDZ2WT and MUT plasmids used to generate proteins containing an amino-terminal, in-frame, 11-amino-acid, minimal transduction domain (residues 47-57 of human immunodeficiency virus Tat protein) termed Tat. […] Fang et al., 2003. The NO donor Molsidomine [(N-[ethoxycarbonyl]-3-[4-morpholinosydnomine] (Sigma, St. Louis, Mo.) was injected at 4 mg/kg into mice ip in 100 μL sterile saline as previously described. Control animals were injected ip with the vehicle (saline).

primary neuron cultures = assay: Primary neuron cultures, long thin spines and filopodia at DIV7; format: cell-based; settings: 4 hrs: isoflurane 1.5%, PDZ2WT peptide 1 μM or sevoflurane 2.1%
Experimental: Primary neuron cultures were exposed to control gas (25% O2, 5% CO2, bal N2), isoflurane (1.5% ISO in 25% O2, 5% CO2, bal N2), DETA NONOate NO donor 150 μM and sGC inhibitor ODQ 100 μM for 4 hrs. […] MAP2 dendrite marker, green. Drebrin A/E immature spine/filopodia marker, red. Scale bar is 5 μm. FIG. 20B, Density of long thin spines and filopodia at DIV7 among exposed groups analyzed using Imaris 93.1;
MAP2, green. Drebrin, red. Scale bar is 5 μm. FIG. 21B, show the density of long thin spines and filopodia among exposed groups;
Neuron cultures were exposed to control gas (25% O2, 5% CO2, balance N2) or sevoflurane (2.1% ISO in 25% O2, 5% CO2, balanced N2) for 4 hrs. […] Scale bar is 5 μm. FIG. 22B, Density of long thin spines and filopodia among exposed groups; and […]

[2] = system: PSD-95 or PSD-93 and the NMDA receptor or nNOS; settings: clinically relevant concentrations; Fang et al., 2003; Tao et al., 2015; cited from earlier work
neuron cultures = assay: Neuron cultures, synapses (PSD95/Synaptophysin puncta) at DIV14; format: cell-based; settings: isoflurane exposure at DIV7, stained at DIV14
Experimental: Neuron cultures were transfected with GFP-AAV virus at DIV-4 and were exposed to NO donor (DETA) 150 μM and sGC inhibitor (ODQ) 100 μM for 4 hrs right before exposure to gases at DIV7. Cells were returned back to incubator with half media change every second day. At DIV14, cells were fixed and stained with PSD95 and Synaptophysin. […] Scale bar is 5 μm. FIG. 23B: Synapse were analyzed using puncta analyzer plugin as shown in methods section.

GFP+ neurons = settings: early exposure to isoflurane, PND30; Kang et al., 2017; cited from earlier work

FC(F)OC(Cl)C(F)(F)F (racemic) [ISO, (RS)-2-chloro-2-(difluoromethoxy)-1,1,1-trifluoroethane]
amount of SAP102 in synaptic fractions (SAP102): significant increase | amount of NR1 in synaptic fractions (NR1): decrease | arterial blood pH (pHa) [1]: 7.26±0.05 | heart rate (HR) [1]: 611±84 | oxyhemoglobin saturation (SpO2) [1]: 93±6 | long thin spines and filopodia at DIV7 after exposure (primary neuron cultures): loss of long thin and filopodia spines | PDZ domain-mediated protein interactions [2]: can disrupt PDZ domain-mediated protein-protein interactions in vitro and in vivo | synapses at DIV14 after exposure (neuron cultures): loss of synapse | total dendritic length and Sholl analysis of dendritic complexity (GFP+ neurons): marked overgrowth of dendritic arbors
